The target of one assay is T1, HSF-PLA2 (Homo sapiens, UniProt P14555).
T1 construct: extracellular enzyme obtained from human synovial fluid (HSF-PLA2); from tissue; host or cells: pooled human synovial fluid, added at 0.1% (v/v)
T1 sequence (P14555 21-144): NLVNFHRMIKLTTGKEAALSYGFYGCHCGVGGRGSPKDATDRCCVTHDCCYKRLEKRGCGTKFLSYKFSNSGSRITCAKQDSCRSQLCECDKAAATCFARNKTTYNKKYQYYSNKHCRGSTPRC
The assay is described as follows: Assay for Inhibition of HSF-PLA2 In Vitro. As to conditions: for IC50: read-out: Inhib of HSF-PLA2 IC50; for inhibition at 1 µM: read-out: Inhib of HSF-PLA2, % inhibition. Type of assay: biochemical. The method, boiled down:
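Extracellular PLA2 isolated from human synovial fluid, incubated 30 min at 37 °C with 14C-labelled phospholipid substrate in duplicate. Lipids were chloroform-extracted, and released 14C-oleic acid was separated from substrate by silica TLC; a no-enzyme control was run in each experiment.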

A further assay concerns PLA2 Rat Paw Edema. The assay is described as follows: Phospholipase A2 Rat Paw Edema. The assay is classed as in vivo, Lewis rats. As to conditions: Rattus norvegicus; 2 hr; 30 mg/kg; read-out: % Inhib of PLA2 Rat Paw Edema 2 hr (30 mg/kg). The method, boiled down: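 Lewis rats (~200 g, n=7) dosed i.p. (in DMSO) or orally (in Labrafil M-1944CS) 1 h before subplantar injection of 5 ug Naja naja PLA2 into right hind paw. Paw volume by plethysmometry at 0.5, 2 and 4 hr minus baseline; % change versus vehicle, Student's t-test.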

Assay [1] deals with Croton Oil Mouse Ear Edema. Briefly: Croton Oil Mouse Ear Edema Test. Type of assay: in vivo, CD-1 mice. As to conditions: topical, coapplied, 6 hours.
Assay [2] relates to rat carrageenan-induced paw edema. Briefly: Rat Carrageenan Paw Edema. The assay is classed as in vivo, Lewis rats. As to conditions: 2 h, 30 mg/kg ip. How it is done: Rat Carrageenan Paw Edema
Representative compounds of the invention were tested in rat carrageenan-induced paw edema to determine their ability to inhibit this acute inflammatory response. Test compounds are administered intraperitoneally or orally to groups of seven Lewis rats (≈200 gm) 1 hr prior to carrageenan administration. The test compounds are dissolved in dimethyl sulfoxide for intraperitoneal administration and dissolved or suspended in Labrafil […] for oral administration. At 0 hour, 0.1 mL of 1% carrageenan dissolved in pyrogen free saline is injected subplantarly into the right hind paw to elicit the inflammatory response. The volume (in mL) of the right hind paw is measured by immersion of the paw to the level of the lateral malleolus in an aqueous plethysmometer immediately prior to the injection of carrageenan and then at 1, 2 and 4 hr after carrageenan injection. The paw edema is calculated by substracting the zero time reading from the readings taken after injection. The percent change of the edema volume from the vehicle treated control is calculated to determine the activity of the test compound. Statistical analysis of the mean paw edema values of the control versus the treated groups are performed using Student's t-test.

Assay [3] deals with adjuvant arthritis model in rats. Briefly: Established Adjuvant Arthritis Test. The assay is classed as in vivo. Here is the method: Established Adjuvant Arthritis Test
Representative compounds of the invention were tested in the standard adjuvant arthritis model in rats, induced by Freunds complete adjuvant, as described by C. E. Brinckerhoff, J. W. Coffey and A. C. Sullivan, Science, 221, p. 756-758 (1983).

In general, IC50 refers to the concentration that inhibits the measured activity by half. For the molecule `CCCCCCCCCCCCCCCCCCOc1cc(OCCCOc2cccc(N)c2)cc(N(CC(=O)O)CC(=O)O)c1` [Example 58n, N-(carboxymethyl)-N-[3-[3-(3-aminophenoxy)propoxy]-5-(octadecyloxy)phenyl]glycine], the IC50 at HSF-PLA2 worked out at 130 nM. Besides, the inhibition in vivo at 30 mg/kg with PLA2 Rat Paw Edema was found to be 4%; in assay [2], 65%. For the same molecule, the “% Inhib of Croton Oil Mouse Ear Edema (1 mg)” value (“% Inhib” below) in assay [1] is reported as 64%. Further, the “Change in Paw Volume (mL) Treated” value in assay [3] (10 mg/kg ip) came to 0.23 ± 0.12 mL.

A word on the inhibition: it is the relative decrease from the control value, in per cent. For `CCCCCCCCCCCCCCCCCCOc1cc(OCCOCCOCCOCC)cc(N(CC(=O)O)CC(=O)O)c1` [Example 151], the inhibition at 1 µM on HSF-PLA2 is 100%. The inhibition in vivo at 30 mg/kg with PLA2 Rat Paw Edema stood at 43%. The “% Inhib” value in assay [1] was found to be 54%. In addition, in assay [3] (10 mg/kg ip), the “Change in Paw Volume (mL) Treated” value is given as 0.28 ± 0.16 mL.

Turning to `CCCCCCCCCCCCCCCCCCOc1cc(OCCCCC(=O)OC)cc(N(CC(=O)O)CC(=O)O)c1` [Example 64], at HSF-PLA2, the half-maximal inhibitory concentration (IC50) came to 60 nM. The figures for the inhibition in vivo at 30 mg/kg (in the assay on PLA2 Rat Paw Edema; in assay [2]) were 61% and 69%, respectively. Moreover, the “% Inhib” value in assay [1] was 87%. The “Change in Paw Volume (mL) Treated” value in assay [3] (10 mg/kg ip) was 0.65 ± 0.12 mL.

Take `CCCCCCCCCCCCCCCCCCOc1cc(NS(=O)(=O)C(F)(F)F)cc(N(CC(=O)O)CC(=O)O)c1` [Example 162, N-(Carboxymethyl)-N-[3-(octadecyloxy)-5-[[(trifluoromethyl)sulfonyl]amino]phenyl]glycine]: at HSF-PLA2, the inhibition at 1 µM turned out to be 82%. Further, the figures for the inhibition in vivo at 30 mg/kg (with PLA2 Rat Paw Edema; in assay [2]) were 65% and 69%, respectively. Further, the “% Inhib” value in assay [1] came out at 79%.

With `CCCCCCCCCCCCCCCCCCOc1cc(C(=O)O)cc(N(CC(=O)O)CC(=O)O)c1` [Example 70, N-[3-Carboxy-5-(octadecyloxy)phenyl]-N-(carboxymethyl)glycine], the IC50 on HSF-PLA2 was 1000 nM. Moreover, in the assay on PLA2 Rat Paw Edema, the inhibition in vivo at 30 mg/kg is 45%. Besides, the “% Inhib” value in assay [1] is 0%. In addition, the “Change in Paw Volume (mL) Treated” value in assay [3] (10 mg/kg ip) turned out to be 0.30 ± 0.09 mL.

As for `CCCCCCCCCCCCCCCCCCOc1cc(OCCCCCc2cccc(O)c2O)cc(N(CC(=O)O)CC(=O)O)c1` [Example 146], on HSF-PLA2, the IC50 came to 200 nM. In addition, the inhibition in vivo at 30 mg/kg in the assay with PLA2 Rat Paw Edema came to 74%; in assay [2], 55%. For the same molecule, the “% Inhib” value in assay [1] is 18%.

Consider `CCCCCCCCCCCCCCCCCCOc1cc(OCCCOc2cccc(Br)c2)cc(N(CC(=O)O)CC(=O)O)c1` [Example 108, N-(Carboxymethyl)-N-3-[3-[3-(bromophenoxy)propoxy]-5-(octadecyloxy)phenyl]glycine], for which the inhibition at 1 µM at HSF-PLA2 came out at 92%. Further, the inhibition in vivo at 30 mg/kg in the assay on PLA2 Rat Paw Edema is 12%; in assay [2] it was 33%. The “% Inhib” value in assay [1] came out at 34%.

Consider `CCCCCCCCCCCCCCCCCCOc1cc(OCCCOc2ccc([S+](C)[O-])cc2)cc(N(CC(=O)O)CC(=O)O)c1` (centres unmarked) [Example 159], for which the inhibition at 1 µM on HSF-PLA2 came out at 100%. The inhibition in vivo at 30 mg/kg worked out at 78% with PLA2 Rat Paw Edema and 44% in assay [2]. Also, in assay [1], the “% Inhib” value is listed as 59%.

Take `CCCCCCCCCCCCCCCCCCOc1cc(OCCCP(=O)(O)OCC)cc(N(CC(=O)O)CC(=O)O)c1` [Example 89]: on HSF-PLA2, the inhibition at 1 µM was 31%. Further, the inhibition in vivo at 30 mg/kg in the assay on PLA2 Rat Paw Edema came to 45%. For the same molecule, the “Change in Paw Volume (mL) Treated” value in assay [3] (30 mg/kg ip) is -0.68 ± 0.08 mL.

For the molecule `CCCCCCCCCCCCCCCCCCOc1cc(OCCCOc2ccc(S(C)(=O)=O)cc2)cc(N(CC(=O)O)CC(=O)O)c1` [Example 161, N-(Carboxymethyl)-N-[3-[3-[4-(methylsulfonyl)phenoxy]propoxy]-5-(octadecyloxy)phenyl]glycine], the inhibition at 1 µM at HSF-PLA2 is 100%. For the same molecule, the inhibition in vivo at 30 mg/kg was 66% in the assay on PLA2 Rat Paw Edema and 56% in assay [2]. In addition, in assay [1], the “% Inhib” value is on record as 87%.
